The nature of data set [1]: Solubility in water of linker-payloads.
Data set [2] deals with intracellular S. aureus NRS384 in THP-1 macrophages. Briefly: Intracellular S. aureus killing assay with rifamycin analogs (Example 44). The format is cell-based. The settings on record: for Intracellular killing MIC: lowest concentration that resulted in intracellular S. aureus eradication, THP-1 macrophages; for intracellular S. aureus killing (in words): infected THP-1 macrophages, 2h treatment, compared to rifampicin. Here is the method: The rifamycin analog compounds' activity against S. aureus was tested in an intracellular “killing” assay.
THP-1 monocytic cell line was grown in media (RMPI+10% FBS+1% Penicillin/Streptomycin), then seeded at a density of 1e5 cells/well in a 96 well plate and differentiated into macrophages for three days prior to infection using 200 nM PMA. An overnight culture of S. aureus NRS384 was grown in RPMI, washed twice with PBS and resuspended at 1e7 cfu/mL in PBS. THP-1 were washed with warm media (RMPI without FBS) to remove the Penicillin/Streptomycin and then infected with the S. aureus suspension at a multiplicity of infection of 10:1 (S. aureus: macrophages). Plates were spun at 300×g for 5 minutes to synchronize adhesion of the bacteria, then incubated at 37° C. for 2 hours. Free-floating bacteria were removed by washing 2× with warm media and remaining extracellular S. aureus were killed by addition of media containing gentamicin (50 ug/mL). After 1h, media was aspirated and the indicated compound was added to infected macrophages in media containing 50 μg/mL gentamicin to prevent extracellular growth of S. aureus. After 2h, plates were washed 2× with warm RPMI without FBS, and 100 ul of THP-1 lysis buffer (0.1% Triton in PBS) was added to each well. S. aureus survival was enumerated by colony forming units through serial dilution and plating onto TSA.

The next data set has as its system S. aureus NRS384. Briefly: Broth minimum inhibitory concentration (MIC) assay. The settings on record: S. aureus NRS384, TSB, 24h, 37° C. The format is cell-based. As for the experimental part: To test the efficacy of rifamycin analogs of the disclosure in vitro, a broth growth inhibition assay was developed. For the assay, S. aureus NRS384 was grown in Tryptic Soy Broth (TSB) overnight, then sub-cultured 1:50 in fresh TSB and grown for an additional two hours. The culture was then pelleted via centrifugation and washed twice in PBS. The culture was then diluted to 1×10^4 cfu/mL in TSB and 50 μL of the suspension was added per well to a 96 well microtiter dish in duplicate. A dilution series of the indicated antibiotic (an analog according to the disclosure or a previously known analog Rifampicin) was added 1:1 for a final starting concentration of 1×10^−5 M with 1:3 dilutions.

Converted amounts (≈) assume the structure as drawn. “Also recorded” adds a separate entry of the source.

In general, solubility refers to the dissolved amount per volume that the medium holds. Turning to `CCCC1O[C@@H]2C[C@H]3[C@@H]4C[C@H](F)C5=CC(=O)C=C[C@]5(C)[C@@]4(F)[C@@H](O)C[C@]3(C)[C@]2(C(=O)CNC(=O)OCc2ccc(NC(=O)[C@H](CCCNC(N)=O)NC(=O)[C@@H](NC(=O)CCOCCOCCOCCOCCNC(=O)CCC(=O)N3Cc4ccccc4C#Cc4ccccc43)C(C)C)cc2)O1` (stereo partly shown) [LP13], the concentration in solution in data set [1] (solubility) was 20 µg/mL (≈ 14.2 µM).
Same read-out and setting: with `CCCC1O[C@@H]2C[C@H]3[C@@H]4C[C@H](F)C5=CC(=O)C=C[C@]5(C)[C@@]4(F)[C@@H](O)C[C@]3(C)C2(C(=O)CNC(=O)OCc2ccc(NC(=O)[C@H](CCCNC(N)=O)NC(=O)[C@@H](NC(=O)[C@@H](CCCCNC(=O)COC3CCCCCc4c3nnn4CC3OC4OC5C(CO)OC(OC6C(CO)OC(OC7C(CO)OC(OC8C(CO)OC(OC9C(CO)OC(OC3C(O)C4O)C(O)C9O)C(O)C8O)C(O)C7O)C(O)C6O)C(O)C5O)NC(=O)CCOCCOCCOCCOCCNC(=O)CCC(=O)N3Cc4ccccc4C#Cc4ccccc43)C(C)C)cc2)O1` (stereo partly shown) [LP14] the figure was 26 µg/mL (≈ 9.64 µM).
Turning to `CO[C@H]1/C=C/O[C@@]2(C)Oc3c(C)c(O)c4c(=O)c(c5n(C)c6cc(O)ccc6nc-5c4c3C2=O)NC(=O)/C(C)=C\C=C\[C@H](C)[C@H](O)[C@@H](C)[C@@H](O)[C@@H](C)[C@H](OC(C)=O)[C@@H]1C` [R1d, Rifamycin 4-OH-Phenol N-Methyl Analogs], the “Intracellular killing MIC” value in data set [2] was more than 1.0E−06. Further, the “S. aureus Broth MIC” value in the data set on S. aureus NRS384 turned out to be 0.37 µM.
For `CO[C@H]1/C=C/O[C@@]2(C)Oc3c(C)c(O)c4c(=O)c(c5oc6cc(OC7CCNCC7)ccc6nc-5c4c3C2=O)NC(=O)/C(C)=C\C=C\[C@H](C)[C@H](O)[C@@H](C)[C@@H](O)[C@@H](C)[C@H](OC(C)=O)[C@@H]1C` [R14], in data set [2], the “intracellular S. aureus killing (in words)” value is “increased intracellular S. aureus killing capacity compared to rifampicin” and the “Intracellular killing MIC” value turned out to be 1.0E−06. Also, the “S. aureus Broth MIC” value with S. aureus NRS384 amounted to 0.041 µM.
On the same counts, the results for `CO[C@H]1/C=C/O[C@@]2(C)Oc3c(C)c(O)c4c(=O)c(c5oc6cc(OCCN(C)C)ccc6nc-5c4c3C2=O)NC(=O)/C(C)=C\C=C\[C@H](C)[C@H](O)[C@@H](C)[C@@H](O)[C@@H](C)[C@H](OC(C)=O)[C@@H]1C` [R16a] are “increased intracellular S. aureus killing capacity compared to rifampicin; also recorded: highest activity”, 4.0E−08 and 0.0015 µM.

Values taken from patent US12497460B2, “Anti-MSR1 antibodies and methods of use thereof” (REGENERON PHARMACEUTICALS, INC., priority 2018, dated 2025).
